From US4698330A, “Somnogenic compositions and method of use” (President & Fellows of Harvard College, priority 1983, dated 1987)
Several values for one entry are separate records, joined by “and”; a condition that tells them apart may be missing. Equal values may be shown once.

Assays:
rabbits [1] = assay: Intravenous injection in rabbits, SWS and side effects
Protocol: New Zealand rabbits (male, 3-5 kg) or domestic cats were adapted to the infusion cages in a temperature-controlled room (21°-2° C.) on a 12:12 light/dark cycle. Intraventricular infusions or systemic injections were carried out between 0800 and 1000 hr and were followed by 6 or more hr of recording without disturbing the animals. […] Indomethacin for intravenous injection was dissolved in a small amount of EtOH and diluted with 150 mM NaHCO3 to a concentration of 5 mg/ml. Acetaminophen (Sigma) was dissolved in sterile pyrogen-free saline.
(§3) EEG, electro-oculogram, and bodily movements were recorded on Grass polygraphs. The amplitude of EEG slow waves was recorded as the rms-rectified output from a 0.5- to 4-Hz bandpass filter (Bunco Electronics, Sharon, (T); the rms component was integrated and the integral was printed on tape every 2 min, thus providing an objective measure of the product of amplitude and duration of EEG slow waves. Each record was also analyzed visually for duration of SWS in rabbits and for both SWS and REM sleep in cats. The infusion and recording systems and examples of analysis of records are described in 1, 12, 15.
Each value is mean ±SEM of 11 assays in eight rabbits.

squirrel monkey = conditions: cited abstract (reference 2); cited from earlier work
rabbits [2] = assay: Brain/body temperature (pyrogenic response) after intraventricular infusion in rabbits; type: in vivo, rabbit; conditions: for ΔTmax, maximum increase in temperature: intraventricular, brain temperature, single rabbits, listed as AcMur--Ala--iGln
Protocol: (§1) Acetaminophen (Sigma) was dissolved in sterile pyrogen-free saline.

cats [3] = assay: Intraventricular infusion in cats, SWS, REM sleep and brain temperature; type: in vivo, cat; conditions: intraventricular 200-500 pmol, four cats
Protocol: as §1
Each of four cats was infused intraventricularly one or more times with AcMur-ala-igln or AcMur-ala-igln-lys (200-500 pmol). The responses were more complex than those in rabbits. […] Only after the febrile response had reached its peak did the cats start to sleep for abnormally long periods in deep stage II SWS alternating with periods of REM sleep. The SWS and temperature responses of one cat to 250 pmol of AcMur-ala-igln-lys delivered intraventricularly during 15 min prior to start of recording is shown in FIG. 3. […] A similar delay in the onset of excess SWS was noted by Garcia-Arraras (12) after infusion of natural sleep factor in cats.
Excess SWS induced by AcMur-ala-igln-lys lasted for 3-8 hr after infusion. (A) - - - , Control=37.7 plus or minus 0.2° C. (B) - - - , Control=27 plus or minus 5%. Similar responses were observed following one or more infusions of AcMur-ala-igln or AcMur-ala-igln-lys in each of four cats.

rabbits [4] = assay: Antipyretic (acetaminophen, indomethacin, aspirin) with AcMur-ala-igln in rabbits, SWS and temperature; type: in vivo; conditions: for hourly % SWS (mean ±SEM): FIG. 5; for suppression of the pyrogenic (febrile) effects of AcMur-ala-igln by the antipyretic: AcMur-ala-igln delivered intravenously in rabbits
Protocol: as §1
For this reason, the less toxic acetaminophen was used to suppress the pyrogenic effects of AcMur-ala-igln.
In FIG. 5, the symbols mean the following: , AAP alone; , AAP followed by 120 μg of AcMur-ala-igln intravanously at time zero. Each value is mean ±SEM of six assays in six rabbits. In A, the average of the individual increases (ΔT values) in rectal temperature induced by AcMur-ala-igln together with AAP is compared with that induced by AAP alone in each of six rabbits.

rabbits [5] = assay: Intraventricular infusion in rabbits, EEG slow-wave sleep (SWS); conditions: for % SWS, 6 hr post infusion, Expt / % SWS Expt.: hr 2-6 after infusion; for % SWS, 6 hr post infusion, Expt: mean ± SEM or range
Protocol: Calibrated glass bead thermistors (Fenwall; 1.2-mm outside diameter, 50 omega/°C.) were implanted through burr holes in frontal bone: the thermistor leads were buried in a mound of dental cement that also insulated the screw electrodes and supported a 9-pin miniature electrical connector. In some experiments, the rectal temperatures were measured at intervals by using a calibrated thermistor probe; temperatures estimated from the implanted brain thermistors were generally within 0.3° C. of simultaneously recorded rectal temperature.
New Zealand rabbits (male, 3-5 kg) or domestic cats were adapted to the infusion cages in a temperature-controlled room (21°-2° C.) on a 12:12 light/dark cycle. Intraventricular infusions or systemic injections were carried out between 0800 and 1000 hr and were followed by 6 or more hr of recording without disturbing the animals.
as §3

rabbits [6] = assay: Intraperitoneal injection / stomach tube administration in rabbits, sleep response; type: in vivo, rabbit; conditions: two rabbits, intraperitoneal injection / stomach tube (5 mg/kg)
Protocol: In two rabbits, sleep responses were recorded after intraperitoneal injection of AcMur-ala-igln by stomach tube (5 mg/kg).

cats [7] = assay: Toxic reactions to indomethacin alone in cats; type: in vivo, cat; conditions: doses as low as 1 mg/kg
Protocol: (§2) The time course of the pyrogenic response to AcMur-ala-igln was sometimes quite different from that of the somnogenic response and, in some animals, the natural muramyl peptide isolated from urine induced substantial excess SWS without significant alteration of temperature. […] In preliminary experiments, indomethacin was used as an antipyretic because Parant et al. (7) had shown that this drug (in doses of 40 mg/kg) was effective in blocking the pyrogenic response to intravanously administered AcMur-ala-igln. […] For this reason, the less toxic acetaminophen was used to suppress the pyrogenic effects of AcMur-ala-igln. The results for six rabbits injected intravanously with AcMur-ala-igln at 120 μg/kg 30 min after intravanous injection of acetaminophen at 10 mg/kg are summarized in FIG. 5. It is clear that, under these conditions a substantial somnogenic effect was obtained for 3 to 4 hr with only a weak associated febrile response. In some animals, there was no significant increase in temperature during the sleep response.

rabbits [8] = assay: Toxic reactions to indomethacin alone in rabbits; type: in vivo, rabbit; conditions: doses as low as 1 mg/kg
Protocol: as §2

[9] = intraventricular, dose 1.0 nmol
[10] = much smaller doses delivered intraventricularly
[11] = intraventricular, dose 0.2 nmol
[12] = intraventricular, dose 0.5 nmol
[13] = intraventricular, dose 2.0 nmol

## CC(=O)N[C@@H]1[C@@H](O[C@H](C)C(=O)N[C@@H](C)C(=O)N[C@H](CCC(=O)O)C(N)=O)[C@H](O)[C@@H](CO)O[C@H]1O [MDP, 2-(2-acetamido-2-desoxy-3-O-D-glucopyranosyl)-D-propionyl-L-alanyl-D-isoglutamine]
Rabbits [1]; intravenous 150-200 nmol/kg
  time of return of sleep response to near control values: ≤ 5 h
Rabbits [1]; intravenous 150-200 nmol/kg (75-100 μg), FIG. 4
  time of maximum sleep response after injection: about 3 hr
Rabbits [1]; intravenous 150-200 nmol/kg, after 3 to 4 hr
  side effects noted in some animals: abnormal lacrimation, nasal secretion, and inflammation
Rabbits [1]; intravenous, doses sufficient to induce excess SWS and pyrexia
  time after which deleterious side effects occurred: about 3 hr
Squirrel monkey
  effect on non-REM and REM sleep: induces non-REM but not REM sleep
Rabbits [2]; AcMur-ala-igln alone (Table 1)
  average ΔT: 1.9±0.2 °C
Rabbits [2]; dose 75 pmol
  ΔTmax, maximum increase in temperature: 2.8 °C and 1.6 °C
Rabbits [2]; dose 125 pmol
  ΔTmax, maximum increase in temperature: 1.1 °C and 1.5 °C
Cats [3]
  REM sleep during 2-4 hr after the infusion: completely suppressed
  SWS after the initial period of sleep suppression: abnormally long period of deep SWS
Rabbits [4]; AAP 10 mg/kg i.v. followed 30 min later by AcMur-ala-igln 120 μg i.v., six rabbits
  hourly % SWS (mean ±SEM): 67±3%
Rabbits [4]; AcMur-ala-igln 120 μg/kg i.v. after acetaminophen 10 mg/kg i.v.
  time after which toxic reactions developed: about 4 hr
Rabbits [4]; AcMur-ala-igln i.v. with AAP, six rabbits
  average ΔT, rectal temperature: less than 0.7 °C
Rabbits [5]; hr 2 to hr 6 after administration, eight rabbits, FIG. 2
  number of episodes of SWS having durations of 1-8 min: no significant effect
Rabbits [5]; hr 2 to hr 6 after administration, eight rabbits, FIG. 2, P<0.0125
  number of episodes of SWS having durations greater than 8 min: increased
Rabbits [5]; intraventricular
  amount required to induce a comparable increase of SWS for 6 hr, relative to the natural product (factor S): roughly 10 times
Rabbits [5]; intraventricular 75-150 pmol, for 6 hr or more after the infusion, control about 40%
  hourly percentage of SWS: about 60%
Rabbits [5]; intraventricular infusion
  persistence of the effects: 6 to 12 h
Rabbits [5]; intraventricular, dose 0.01 nmol
  % SWS, 6 hr post infusion, Expt: 39 ± 4%
Rabbits [5]; intraventricular, dose 0.05 nmol
  % SWS, 6 hr post infusion, Expt: 49 ± 3%
Rabbits [5]; intraventricular, dose 75 pmol, single rabbits, listed as AcMur--Ala--iGln
  % SWS Expt.: 55% and 43%
Rabbits [5]; intraventricular, dose 0.1 nmol
  % SWS, 6 hr post infusion, Expt: 62 ± 7%
Rabbits [5]; intraventricular, dose 120 pmol, single rabbits, listed as AcMur--Ala--iGln
  % SWS Expt.: 94% and 69%
Rabbits [5]; intraventricular, dose 120 pmol, rms-rectified voltage of 0.5 to 4 Hz band, single rabbits, listed as AcMur--Ala--iGln
  Amplitude of slow wave, Expt.: 56 μV and 42 μV
Rabbits [5]; intraventricular, dose 125 pmol, single rabbits, listed as AcMur--Ala--iGln
  % SWS Expt.: 38% and 60%
Rabbits [5]; [9]
  % SWS, 6 hr post infusion, Expt: 76 ± 7%
Rabbits [5]; intraventricular, dose 10.0 nmol
  % SWS, 6 hr post infusion, Expt: 65 ± 6%
Rabbits [5]; [10]
  deleterious effects: did not cause deleterious effects
  duration of excess SWS: 6 to 10 h
Rabbits [6]
  increase of SWS for 6 hr: ca. 50%

## CC(=O)N[C@H]1C(O)O[C@H](CO)[C@@H](O)[C@@H]1O[C@H](C)C(=O)O (some centres unmarked) [N-acetylmuramic acid, reference compound]
Rabbits [5]; summary of Table 2, intraventricular, rabbits
  somnogenic effect: no effect

## CC(=O)N[C@H]1C(O)O[C@H](CO)[C@@H](O)[C@@H]1O[C@H](C)C(=O)N(C)[C@@H](C)C(=O)N[C@H](CCC(=O)O)C(N)=O (stereo partly drawn) [NAc--Mur--(N--Me)--L-ala-D-igln]
Rabbits [5]; [11]
  % SWS, 6 hr post infusion, Expt: 32-47%

## CC(=O)NC1C(O)OC(CO)C(O)C1OC(C)C(=O)NC(C)C(=O)NC(CCC(=O)O)C(N)=O [NAc--Mur--D-ala-D-igln]
Rabbits [5]; [12]
  % SWS, 6 hr post infusion, Expt: 35 ± 2%
Rabbits [5]; [9]
  % SWS, 6 hr post infusion, Expt: 35 ± 2%

## CC(=O)N[C@H]1C(O)O[C@H](CO)[C@@H](O)[C@@H]1O[C@H](C)C(=O)N[C@@H](C)C(=O)N[C@H](CCC(N)=O)C(=O)O (stereo partly drawn) [NAc--Mur--L-ala-D-gln, NAc-Mur-L-ala-D-gln]
Rabbits [5]; [13]
  % SWS, 6 hr post infusion, Expt: 45 ± 1%
Rabbits [5]; intraventricular, dose 20.0 nmol
  % SWS, 6 hr post infusion, Expt: 58-66%

## COC(=O)[C@@H](CCC(N)=O)NC(=O)[C@H](C)NC(=O)[C@@H](C)O[C@H]1[C@H](O)[C@@H](CO)OC(O)[C@@H]1NC(C)=O (stereo partly drawn) [NAc--Mur--L-ala-D-gln-alpha OMe]
Rabbits [5]; [12]
  % SWS, 6 hr post infusion, Expt: 31-45%

## CCCCOC(=O)[C@@H](CCC(N)=O)NC(=O)[C@H](C)NC(=O)[C@@H](C)O[C@H]1[C@H](O)[C@@H](CO)OC(O)[C@@H]1NC(C)=O (stereo partly drawn) [NAc--Mur--L-ala-D-gln-n-Bu ester]
Rabbits [5]; intraventricular, dose 0.25 nmol
  % SWS, 6 hr post infusion, Expt: 41-47%

## CC(=O)N[C@H]1C(O)O[C@H](CO)[C@@H](O)[C@@H]1O[C@H](C)C(=O)N[C@@H](C)C(=O)N[C@H](CCC(N)=O)C(N)=O (stereo partly drawn) [NAc--Mur--L-ala-D-glu(NH2)--NH2]
Rabbits [5]; [13]
  % SWS, 6 hr post infusion, Expt: 43 ± 1%

## COC(=O)CC[C@@H](NC(=O)[C@H](C)NC(=O)C(C)O[C@H]1[C@H](O)[C@@H](CO)O[C@H](O)[C@@H]1NC(C)=O)C(=O)OC (stereo partly drawn) [NAc--Mur--L-ala-D-glu(OMe)--OMe, NAc-Mur-L-ala-D-glu(OMe)-OMe]
Rabbits [5]; [13]
  % SWS, 6 hr post infusion, Expt: 66 ± 4%

## CC(=O)N[C@H]1C(O)O[C@H](CO)[C@@H](O)[C@@H]1O[C@H](C)C(=O)N[C@@H](C)C(=O)N[C@H](CCC(=O)O)C(=O)O (stereo partly drawn) [NAc--Mur--L-ala-D-glu, NAc-Mur-L-ala-D-glu]
Rabbits [5]; [11]
  % SWS, 6 hr post infusion, Expt: 43 ± 3%
Rabbits [5]; [13]
  % SWS, 6 hr post infusion, Expt: 51 ± 3%

## COC(=O)[C@@H](CCC(=O)O)NC(=O)[C@H](C)NC(=O)[C@@H](C)O[C@H]1[C@H](O)[C@@H](CO)OC(O)[C@@H]1NC(C)=O (stereo partly drawn) [NAc--Mur--L-ala-D-glu-alpha-OMe, NAc-Mur-L-ala-D-glu-alpha-OMe]
Rabbits [5]; [11]
  % SWS, 6 hr post infusion, Expt: 47-61%
Rabbits [5]; [13]
  % SWS, 6 hr post infusion, Expt: 72 ± 4%

## COC(=O)CC[C@@H](NC(=O)[C@H](C)NC(=O)[C@@H](C)O[C@H]1[C@H](O)[C@@H](CO)OC(O)[C@@H]1NC(C)=O)C(N)=O (stereo partly drawn) [NAc--Mur--L-ala-D-igln-gamma-OMe, NAc-Mur-L-ala-D-igln-gamma-OMe]
Rabbits [5]; [13]
  % SWS, 6 hr post infusion, Expt: 56 ± 7%

## CC(=O)N[C@H]1C(O)O[C@H](CO)[C@@H](O)[C@@H]1O[C@H](C)C(=O)N[C@@H](C)C(=O)N[C@@H](CCC(=O)O)C(N)=O (stereo partly drawn) [NAc--Mur--L-ala-L-igln]
Rabbits [5]; [11]
  % SWS, 6 hr post infusion, Expt: 38 ± 4%

## CC(=O)N[C@H]1C(O)O[C@H](CO)[C@@H](O)[C@@H]1O[C@H](C)C(=O)N[C@@H](C)C(=O)N[C@H](CCC(=O)N[C@@H](CCC[C@@H](N)C(=O)O)C(=O)N[C@H](C)C(=O)N[C@H](C)C(=O)O)C(=O)O (stereo partly drawn) [NAc-Mur-L-ala-gamma-D-glu-m-DAP-D-ala-D-ala]
Rabbits [5]; intraventricular, dose 0.15 nmol
  % SWS, 6 hr post infusion, Expt: 46 ± 3%
Rabbits [5]; [11]
  % SWS, 6 hr post infusion, Expt: 65 ± 5%

## CC(=O)NC1C(OC2C(CO)OC(O)C(NC(C)=O)C2OC(C)C(=O)NC(C)C(=O)NC(CCC(=O)O)C(N)=O)OC(CO)C(O)C1O (centres unmarked) [Nac--glc-1,4-MDP, NAc-glucosaminyl-(1,4)-MDP]
Rabbits [5]; [11]
  % SWS, 6 hr post infusion, Expt: 60 ± 5%

## CC(=O)Nc1ccc(O)cc1 [acetaminophen]
Rabbits [4]; AAP alone
  effects on sleep or rectal temperature: no significant effects
Rabbits [4]; AAP alone, 10 mg/kg intravenous, six rabbits
  hourly % SWS (mean ±SEM): 41±3%
Rabbits [4]
  suppression of the pyrogenic (febrile) effects of AcMur-ala-igln by the antipyretic: completely or partially suppressed

## CC(=O)Oc1ccccc1C(=O)O [aspirin, acetyl salicylic acid]
Rabbits [4]
  suppression of the pyrogenic (febrile) effects of AcMur-ala-igln by the antipyretic: like suppression of the febrile response

## COc1ccc2c(c1)c(CC(=O)O)c(C)n2C(=O)c1ccc(Cl)cc1 [indomethacin]
Cats [7]
  toxic reactions (diarrhea, lethargy, inhibition of normal sleep): toxic reactions
Rabbits [8]
  toxic reactions (diarrhea, lethargy, inhibition of normal sleep): toxic reactions
Rabbits [4]; indomethacin: 10 out of 10 trials in six rabbits, acetaminophen: two rabbits
  blocking of the pyrogenic or somnogenic effects of intraventricularly administered AcMur-ala-igln: did not block
